Laboratory results published in patent US20240082223A1, “DIHYDROFUROPYRIDINE DERIVATIVES AS RHO- KINASE INHIBITORS” (CHIESI FARMACEUTICI S.P.A., priority 2020, published 2024).

Assays:
Format in all cases: biochemical
[1] = molecular target: T1, ROCK2 (Homo sapiens, UniProt O75116); assay: In vitro inhibitory activity assay ROCK2 (Method B, ADP-Glo, 200 μM ATP); settings: ATP 200 μM, read-out: Method B ROCK 2 (Ki)
Protocol: (§1) In Vitro Inhibitory Activity Assay Description ROCK1 and ROCK2
(§2) The effectiveness of compounds of the present invention to inhibit Rho kinase activity can be determined in a 10 μl assay containing 40 mM Tris pH7.5, 20 mM MgCl2 0.1 mg/mL BSA, 50 μM DTT and 2.5 μM peptide substrate (Myelin Basic Protein) using an ADP-Glo kit (Promega). Compounds were dissolved in DMSO such that the final concentration of DMSO was 1% in the assay. All reactions/incubations are performed at 25° C. Compound (2 μL) and either Rho kinase 1 or 2 (4 μl) were mixed and incubated for 30 min. Reactions were initiated by addition of ATP (4 μL) such that the final concentration of ATP in the assay was 200 μM. After a 1 hour incubation 10111 of ADP-Glo Reagent was added and after a further 45 minute incubation 20 μL of Kinase Detection Buffer was added and the mixture incubated for a further 30 minutes. The luminescent signal was measured on a luminometer. […] Compounds were tested in dose-response format and the inhibition of kinase activity was calculated at each concentration of compound. To determine the IC50 (concentration of compound required to inhibit 50% of the enzyme activity) data were fit to a plot of % inhibition vs Log10 compound concentration using a sigmoidal fit with a variable slope and fixing the maximum to 100% and the minimum to 0%. To determine the Ki values the Cheng-Prusoff equation was utilized (Ki=IC50/(1[S]/Km).

[2] = molecular target: T2, ROCK1 (Homo sapiens, UniProt Q13464); assay: In vitro inhibitory activity assay ROCK1 (Method A, ADP-Glo, 10 μM ATP); settings: ATP 10 μM, read-out: Method A ROCK 1 (Ki)
Protocol: (§3) In vitro inhibitory activity assay description ROCK1 and ROCK2
as §2, with “(2 uL)” for “(2 μL)”, “was 10” for “was 200”, “incubation […]” for “incubation 10111”, “45 minutes” for “45 minute”, “20 uL” for “20 μL”, “utilized (Ki=IC50/(1+[S]/Km).” for “utilized (Ki=IC50/(1[S]/Km).”

[3] = molecular target: T1, ROCK2; assay: In vitro inhibitory activity assay ROCK2 (Method A, ADP-Glo, 10 μM ATP); settings: ATP 10 μM, read-out: Method A ROCK 2 (Ki)
Protocol: as §3
as §2, with “(2 uL)” for “(2 μL)”, “was 10” for “was 200”, “incubation […]” for “incubation 10111”, “45 minutes” for “45 minute”, “20 uL” for “20 μL”, “utilized (Ki=IC50/(1+[S]/Km).” for “utilized (Ki=IC50/(1[S]/Km).”

[4] = molecular target: PKA (Homo sapiens, UniProt P17612); assay: In vitro inhibitory activity assay for PKA (ADP-Glo), reported as selectivity ratio vs ROCK2; settings: Ki PKA divided by Ki ROCK2 (method B)
Protocol: In vitro inhibitory activity assay description for PKA
The effectiveness of compounds of the present invention to inhibit PKA activity can be determined in a […], assay containing 40 mM Tris pH7.5, 20 mM MgCl2 0.1 mg/mL BSA, 50 μM DTT and 260 μM peptide substrate (kemptide) using an ADP-Glo kit (Promega). Compounds were dissolved in DMSO such that the final concentration of DMSO was 1% in the assay. All reactions/incubations are performed at 25° C. Compound and PKA enzyme (6 μl) were mixed and incubated for 30 min. Reactions were initiated by addition of ATP (4 μL) such that the final concentration of ATP in the assay was 10 μM. After a 30 minute incubation 10 μL of ADP-Glo Reagent was added and after a further 1 hour incubation 20 μL of Kinase Detection Buffer was added and the mixture incubated for a further 45 minutes. The luminescent signal was measured on a luminometer. […] Compounds were tested in dose-response format and the inhibition of kinase activity was calculated at each concentration of compound. To determine the IC50 (concentration of compound required to inhibit 50% of the enzyme activity) data were fit to a plot of % inhibition vs Log10 compound concentration using a sigmoidal fit with a variable slope and fixing the maximum to 100% and the minimum to 0%. To determine the Ki values the Cheng-Prusoff equation was utilized (Ki=IC50/(1+[S]/Km).
In vitro inhibitory activities for PKA were reported as selectivity ratio vs. ROCK2. Selectivity ratio PKA/ROCK2 was calculated by dividing the Ki value for PKA by Ki value of ROCK2 (method B) and reported into table 1.

[5] = molecular target: T2, ROCK1; assay: In vitro inhibitory activity assay ROCK1 (Method B, ADP-Glo, 200 μM ATP); settings: ATP 200 μM, read-out: Method B ROCK 1 (Ki)
Protocol: as §1, §2

T2 sequence (Q13464 whole entry): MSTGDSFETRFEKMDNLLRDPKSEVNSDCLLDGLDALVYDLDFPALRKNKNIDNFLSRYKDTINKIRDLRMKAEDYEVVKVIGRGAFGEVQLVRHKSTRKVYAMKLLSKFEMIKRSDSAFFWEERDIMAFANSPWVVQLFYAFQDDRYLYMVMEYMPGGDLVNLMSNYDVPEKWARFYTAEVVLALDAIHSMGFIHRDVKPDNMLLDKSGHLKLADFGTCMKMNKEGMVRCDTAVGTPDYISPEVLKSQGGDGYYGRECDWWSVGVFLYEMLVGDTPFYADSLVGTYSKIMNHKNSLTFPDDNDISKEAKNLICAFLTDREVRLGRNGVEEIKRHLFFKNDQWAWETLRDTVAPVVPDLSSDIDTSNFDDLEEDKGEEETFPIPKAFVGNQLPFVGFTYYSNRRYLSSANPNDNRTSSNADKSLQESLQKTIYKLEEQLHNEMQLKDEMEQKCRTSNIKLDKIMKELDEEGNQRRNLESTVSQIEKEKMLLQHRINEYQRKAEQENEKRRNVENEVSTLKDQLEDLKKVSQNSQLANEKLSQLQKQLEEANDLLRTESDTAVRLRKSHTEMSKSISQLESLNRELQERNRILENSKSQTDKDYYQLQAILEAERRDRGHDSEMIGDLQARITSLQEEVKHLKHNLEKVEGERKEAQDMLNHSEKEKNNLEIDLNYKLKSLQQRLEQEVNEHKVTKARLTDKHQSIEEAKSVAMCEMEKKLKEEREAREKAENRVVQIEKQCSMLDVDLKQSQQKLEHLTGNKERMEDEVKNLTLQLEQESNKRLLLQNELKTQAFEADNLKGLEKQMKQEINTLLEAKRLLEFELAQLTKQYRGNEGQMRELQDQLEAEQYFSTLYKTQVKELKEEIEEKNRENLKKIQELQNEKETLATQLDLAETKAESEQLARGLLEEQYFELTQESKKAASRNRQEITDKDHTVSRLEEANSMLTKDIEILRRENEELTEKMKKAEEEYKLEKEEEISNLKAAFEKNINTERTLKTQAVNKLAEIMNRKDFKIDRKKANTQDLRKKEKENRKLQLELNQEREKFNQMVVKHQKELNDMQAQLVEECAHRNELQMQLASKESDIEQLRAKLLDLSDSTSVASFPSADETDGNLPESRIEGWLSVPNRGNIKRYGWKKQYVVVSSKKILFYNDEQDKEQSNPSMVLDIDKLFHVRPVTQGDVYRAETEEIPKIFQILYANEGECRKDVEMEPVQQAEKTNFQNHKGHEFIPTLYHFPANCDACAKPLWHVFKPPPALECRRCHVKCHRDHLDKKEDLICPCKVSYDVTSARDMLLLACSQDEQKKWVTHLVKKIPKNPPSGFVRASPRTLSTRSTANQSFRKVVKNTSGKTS
T1 sequence (O75116 whole entry): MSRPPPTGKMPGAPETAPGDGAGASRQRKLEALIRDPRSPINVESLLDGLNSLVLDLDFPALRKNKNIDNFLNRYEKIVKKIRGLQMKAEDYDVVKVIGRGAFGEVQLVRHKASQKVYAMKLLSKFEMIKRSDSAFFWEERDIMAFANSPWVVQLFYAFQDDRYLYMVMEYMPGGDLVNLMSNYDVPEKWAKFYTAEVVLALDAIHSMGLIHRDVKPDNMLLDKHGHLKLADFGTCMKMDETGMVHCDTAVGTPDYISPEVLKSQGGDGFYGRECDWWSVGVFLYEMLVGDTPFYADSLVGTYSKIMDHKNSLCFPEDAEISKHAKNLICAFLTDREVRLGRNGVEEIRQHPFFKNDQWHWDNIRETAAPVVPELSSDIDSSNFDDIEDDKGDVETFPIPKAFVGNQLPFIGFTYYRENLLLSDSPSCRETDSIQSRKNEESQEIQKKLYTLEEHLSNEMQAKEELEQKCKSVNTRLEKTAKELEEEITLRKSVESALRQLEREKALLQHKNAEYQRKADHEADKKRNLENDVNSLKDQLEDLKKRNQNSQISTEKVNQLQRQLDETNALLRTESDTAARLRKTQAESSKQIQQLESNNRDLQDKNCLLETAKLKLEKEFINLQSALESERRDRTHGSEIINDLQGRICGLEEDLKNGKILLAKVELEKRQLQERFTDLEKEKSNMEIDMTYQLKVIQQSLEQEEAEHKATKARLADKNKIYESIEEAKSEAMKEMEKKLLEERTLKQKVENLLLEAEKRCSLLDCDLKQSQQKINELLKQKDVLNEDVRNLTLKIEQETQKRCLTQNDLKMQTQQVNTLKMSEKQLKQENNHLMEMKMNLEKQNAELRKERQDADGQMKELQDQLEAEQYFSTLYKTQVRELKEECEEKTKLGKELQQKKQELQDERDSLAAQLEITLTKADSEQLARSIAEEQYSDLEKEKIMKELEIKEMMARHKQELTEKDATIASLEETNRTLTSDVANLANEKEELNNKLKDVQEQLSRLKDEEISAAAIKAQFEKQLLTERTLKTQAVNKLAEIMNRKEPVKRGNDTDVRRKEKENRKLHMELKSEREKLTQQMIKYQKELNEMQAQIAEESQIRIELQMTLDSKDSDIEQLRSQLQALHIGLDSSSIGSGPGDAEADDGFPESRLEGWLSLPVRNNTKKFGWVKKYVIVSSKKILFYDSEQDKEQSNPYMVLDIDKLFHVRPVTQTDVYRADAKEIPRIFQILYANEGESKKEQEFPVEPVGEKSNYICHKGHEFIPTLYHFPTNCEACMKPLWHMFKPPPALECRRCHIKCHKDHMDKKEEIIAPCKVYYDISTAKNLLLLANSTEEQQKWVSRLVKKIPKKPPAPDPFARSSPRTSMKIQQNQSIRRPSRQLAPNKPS

Structure (SMILES) | Ki [1] | Ki [2] | Ki [3] | Ratio Ki PKA/ROCK2 [4] | Ki [5]
CN1CCn2nc(NC(=O)c3cccc(CNc4ncc(-c5cn[nH]c5)c5c4CCO5)c3)cc2C1 [Example 15, 3-(((7-(1H-pyrazol-4-yl)-2,3-dihydrofuro[3,2-c]pyridin-4-yl)amino)methyl)-N-(5-methyl-4,5,6,7-tetrahydropyrazolo[1,5-a]pyrazin-2-yl)benzamide] | ≤ 3 nM | ≤ 3 nM | ≤ 3 nM | *** (ratio≥10) | ≤ 3 nM
O=C(NCCC1CCN(C2COC2)CC1)c1cccc(CNc2ncc(-c3cn[nH]c3)c3c2CCO3)c1 [Example 28, 3-(((7-(1H-pyrazol-4-yl)-2,3-dihydrofuro[3,2-c]pyridin-4-yl)amino)methyl)-N-(2-(1-(oxetan-3-yl)piperidin-4-yl)ethyl)benzamide] | ≤ 3 nM | ≤ 3 nM | ≤ 3 nM | *** (ratio≥10) | ≤ 3 nM
O=C(Nc1nc2c(s1)CC(NC1COC1)CC2)c1cccc(CNc2ncc(-c3cn[nH]c3)c3c2CCO3)c1 (stereo not shown) [Example 34, 3-(((7-(1H-pyrazol-4-yl)-2,3-dihydrofuro[3,2-c]pyridin-4-yl)amino)methyl)-N-(6-(oxetan-3-ylamino)-4,5,6,7-tetrahydrobenzo[d]thiazol-2-yl)benzamide] | ≤ 3 nM | ≤ 3 nM | ≤ 3 nM | *** (ratio≥10) | ≤ 3 nM
O=C(NCc1cnon1)c1cccc(CNc2ncc(-c3cn[nH]c3)c3c2CCO3)c1 [Example 10, N-((1,2,5-oxadiazol-3-yl)methyl)-3-(((7-(1H-pyrazol-4-yl)-2,3-dihydrofuro[3,2-c]pyridin-4-yl)amino)methyl)benzamide] | ≤ 3 nM | – | – | *** (ratio≥10) | ≤ 3 nM
O=C(NCC1CCCCO1)c1cccc(CNc2ncc(-c3cn[nH]c3)c3c2CCO3)c1 (single isomer, unassigned; enantiomer 1) [Example 55, 3-(((7-(1H-pyrazol-4-yl)-2,3-dihydrofuro[3,2-c]pyridin-4-yl)amino)methyl)-N-((tetrahydro-2H-pyran-2-yl)methyl)benzamide (Enantiomer 1)] | ≤ 3 nM | – | – | *** (ratio≥10) | ≤ 3 nM
CN(C)CCOc1ccc(NC(=O)c2cccc(CNc3ncc(-c4cn[nH]c4)c4c3CCO4)c2)nc1 [Example 57, 3-(((7-(1H-pyrazol-4-yl)-2,3-dihydrofuro[3,2-c]pyridin-4-yl)amino)methyl)-N-(5-(2-(dimethylamino)ethoxy)pyridin-2-yl)benzamide] | ≤ 3 nM | – | – | *** (ratio≥10) | ≤ 3 nM
CN(C)C1CCc2nc(NC(=O)c3cccc(CNc4ncc(-c5cn[nH]c5)c5c4CCO5)c3)sc2C1 (stereo not shown) [Example 33, 3-(((7-(1H-Pyrazol-4-yl)-2,3-dihydrofuro[3,2-c]pyridin-4-yl)amino)methyl)-N-(6-(dimethylamino)-4,5,6,7-tetrahydrobenzo[d]thiazol-2-yl)benzamide] | ≤ 3 nM | ≤ 3 nM | ≤ 3 nM | *** (ratio≥10) | ≤ 3 nM
CN1CCC(CCNC(=O)c2cccc(CNc3ncc(-c4cn[nH]c4)c4c3CCO4)c2)CC1 [Example 16, 3-(((7-(1H-pyrazol-4-yl)-2,3-dihydrofuro[3,2-c]pyridin-4-yl)amino)methyl)-N-(2-(1-methylpiperidin-4-yl)ethyl)benzamide] | ≤ 3 nM | ≤ 3 nM | ≤ 3 nM | *** (ratio≥10) | ≤ 3 nM
